Measurements: patent US20040043403A1, “Process for determining the biological activity of epidermal growth factor receptor tyrosine kinase inhibitors” (priority 2000, published 2004)

What was measured:
NCI-H596 = assay: Real time RT-PCR gene expression in NCI-H596 cells; type: cell-based, human; conditions: NCI-H596, 3 μM, 24 h; relative to DMSO-treated NCI-H520 calibrator
Experimental: 20 million tissue culture cells (about 80% confluent) or 200 million WBCs are incubated for 2 or 24 h in culture medium containing 3 μM of an EGFR tyrosine kinase inhibitor or 0.03% DMSO. Total RNA from cell pellet is isolated using the RNeasy kit (Qiagen). mRNA is isolated using the oligotex mRNA purification kit (Qiagen). The quality of the obtained mRNA is tested by real time RT-PCR using beta-Actin primers (PE Applied Biosystems) with an amplicon size of 300 base pairs (bp). The total RNA is used as a reference to calculate the amount of mRNA-enrichment in the oligotex purified samples. The primers and probes are designed from mRNA sequences within the coding region or in the 3′ untranslated region (Table 2). For real time RT-PCR, RNA concentrations between 1 and 50 ng/reaction are used to obtain signals between 15-35 cycles. For each RNA preparation RT-PCR reactions are performed with and without reverse transcriptase to check for genomic DNA contamination. In all RNA samples tested, genomic DNA contamination is less than 1%. To normalize for variability in the initial concentration and quality of the total RNA, Glyceraldehyde-3-phosphate dehydrogenase (GAPDH) is used as an endogenous reference in all quantification experiments. For RT-PCR a one step, two-enzyme system is chosen. The TaqMan PCR Core Reagent Kit (PE #N808-0228) plus the reverse transcriptase MuLV (PE Biosystems # N808-0018) and RNase inhibitor (Roche Diagnostics # 799 025) are mixed as described in the manufacturers protocol. Triplicate measurements are done for target and for reference reactions. […] RT-PCR reactions are done with RNA concentrations of 2.5, 5, 10, 20, 40 and 80 ng per reaction. […] The ΔCT value is determined by subtracting the average reference CT values from the average target CT values of the three measurements. Relative quantification is performed in triplicates, reference and target, using the RT-PCR protocol described above. […] Expression levels for the three genes, calculated relative to NCI-H520, show big differences between the various cell types (Table 5). […]

A431 cells = assay: Real time RT-PCR gene expression in A431 cells; type: cell-based, human
Experimental: 20 million tissue culture cells (about 80% confluent) or 200 million WBCs are incubated for 2 or 24 h in culture medium containing 3 μM of an EGFR tyrosine kinase inhibitor or 0.03% DMSO. Total RNA from cell pellet is isolated using the RNeasy kit (Qiagen). mRNA is isolated using the oligotex mRNA purification kit (Qiagen). The quality of the obtained mRNA is tested by real time RT-PCR using beta-Actin primers (PE Applied Biosystems) with an amplicon size of 300 base pairs (bp). The total RNA is used as a reference to calculate the amount of mRNA-enrichment in the oligotex purified samples. 2 million A431 cells at about 80% confluency are treated with an EGFR tyrosine kinase inhibitor (100, 300 or 3000 nM) or 0.03% DMSO and incubated for 4, 8, 16 or 24 h. Total RNA is isolated using the RNeasy kit. The primers and probes are designed from mRNA sequences within the coding region or in the 3′ untranslated region (Table 2). For real time RT-PCR, RNA concentrations between 1 and 50 ng/reaction are used to obtain signals between 15-35 cycles. For each RNA preparation RT-PCR reactions are performed with and without reverse transcriptase to check for genomic DNA contamination. In all RNA samples tested, genomic DNA contamination is less than 1%. To normalize for variability in the initial concentration and quality of the total RNA, Glyceraldehyde-3-phosphate dehydrogenase (GAPDH) is used as an endogenous reference in all quantification experiments. For RT-PCR a one step, two-enzyme system is chosen. The TaqMan PCR Core Reagent Kit (PE #N808-0228) plus the reverse transcriptase MuLV (PE Biosystems # N808-0018) and RNase inhibitor (Roche Diagnostics # 799 025) are mixed as described in the manufacturers protocol. Triplicate measurements are done for target and for reference reactions. […] RT-PCR reactions are done with RNA concentrations of 2.5, 5, 10, 20, 40 and 80 ng per reaction. The absolute value of the slope of (log input amount) vs. ΔCT should be <0.1. The ΔCT value is determined by subtracting the average reference CT values from the average target CT values of the three measurements. Relative quantification is performed in triplicates, reference and target, using the RT-PCR protocol described above.

[1] = A431, 3 μM, 24 h, relative to DMSO-treated NCI-H520 calibrator
[2] = A431 cells, 3 μM, 24 hours, Experiment 1
[3] = A431 cells, 3 μM, 24 hours, Experiment 2
[4] = A431 cells, 3 μM, 24 hours, Experiment 3

C[C@@H](Nc1ncnc2[nH]c(-c3ccc(O)cc3)cc12)c1ccccc1 [COMPOUND A, (R)-6-(4-hydroxy-phenyl)-4-[(1-phenyl-ethyl)-amino]-7H-pyrrolo[2,3-d]pyrimidine]
Relative Clusterin expression (NCI-H596): 44.12 n-fold | Relative TRAIL expression (NCI-H596): 81.76 n-fold | Relative VAC-beta expression (NCI-H596): 102.30 n-fold | Relative Clusterin expression (A431 cells; [1]): 247.28 n-fold | Relative TRAIL expression (A431 cells; [1]): 99.50 n-fold | Relative VAC-beta expression (A431 cells; [1]): 57.20 n-fold | Induction of clusterin gene expression, dose and time dependency (FIGS. 1A and 1B) (A431 cells; A431 cells, 100 nM, 300 nM and 3 μM, 4 to 24 h, real time RT-PCR): shows dose and time dependency | Gene induction, Real time RT-PCR Experiment 1: Acute phase serum amyloid A protein (A431 cells; [2]): 6.6 | Gene induction, Real time RT-PCR Experiment 1: Cathepsin H (A431 cells; [2]): 5.2 | Gene induction, Real time RT-PCR Experiment 1: Caveolin (A431 cells; [2]): 2.8 ± 0.2 | Gene induction, Real time RT-PCR Experiment 1: Complement component 3 (C3) (A431 cells; [2]): 5.6 | Gene induction, Real time RT-PCR Experiment 1: Complement cytolysis inibitor (Clusterin) (A431 cells; [2]): 11.2 ± 2.0 | Gene induction, Real time RT-PCR Experiment 1: DNA binding protein inhibitor ID-3 (A431 cells; [2]): 4.4 | Gene induction, Real time RT-PCR Experiment 1: Extracellular protein S1-5 (A431 cells; [2]): 3.2 ± 1.7 | Gene induction, Real time RT-PCR Experiment 1: TGF-beta induced gene (A431 cells; [2]): 5.2 | Gene induction, Real time RT-PCR Experiment 1: TRAIL (A431 cells; [2]): 7.8 ± 1.6 | Gene induction, Real time RT-PCR Experiment 1: VAC-beta (annexin VIII) (A431 cells; [2]): 2.8 ± 1.5 | Gene induction, Real time RT-PCR Experiment 2: Acute phase serum amyloid A protein (A431 cells; [3]): 2.5 ± 1.1 | Gene induction, Real time RT-PCR Experiment 2: Cathepsin H (A431 cells; [3]): 2.6 ± 0.9 | Gene induction, Real time RT-PCR Experiment 2: Caveolin (A431 cells; [3]): 1.5 ± 0.4 | Gene induction, Real time RT-PCR Experiment 2: Complement component 3 (C3) (A431 cells; [3]): 2.5 ± 0.4 | Gene induction, Real time RT-PCR Experiment 2: Complement cytolysis inibitor (Clusterin) (A431 cells; [3]): 5.2 ± 1.4 | Gene induction, Real time RT-PCR Experiment 2: DNA binding protein inhibitor ID-3 (A431 cells; [3]): 2.2 ± 0.1 | Gene induction, Real time RT-PCR Experiment 2: Extracellular protein S1-5 (A431 cells; [3]): 1.7 ± 0.2 | Gene induction, Real time RT-PCR Experiment 2: TRAIL (A431 cells; [3]): 4.1 ± 1.4 | Gene induction, Real time RT-PCR Experiment 2: VAC-beta (annexin VIII) (A431 cells; [3]): 2.4 ± 0.9 | Gene induction, Real time RT-PCR Experiment 3: Acute phase serum amyloid A protein (A431 cells; [4]): 3.3 | Gene induction, Real time RT-PCR Experiment 3: Cathepsin H (A431 cells; [4]): 2.1 | Gene induction, Real time RT-PCR Experiment 3: Caveolin (A431 cells; [4]): 2.6 | Gene induction, Real time RT-PCR Experiment 3: Complement component 3 (C3) (A431 cells; [4]): 2.0 | Gene induction, Real time RT-PCR Experiment 3: Complement cytolysis inibitor (Clusterin) (A431 cells; [4]): 6.2 | Gene induction, Real time RT-PCR Experiment 3: DNA binding protein inhibitor ID-3 (A431 cells; [4]): 2.4 | Gene induction, Real time RT-PCR Experiment 3: Extracellular protein S1-5 (A431 cells; [4]): 1.2 ± 0.5 | Gene induction, Real time RT-PCR Experiment 3: TRAIL (A431 cells; [4]): 5.7 ± 0.03 | Gene induction, Real time RT-PCR Experiment 3: VAC-beta (annexin VIII) (A431 cells; [4]): 2.5 ± 0.8
